The values below come from BindingDB's records for patent US12234222 (Zhejiang Hisun Pharmaceutical, 2025).

The target in assay [1] is Proto-oncogene tyrosine-protein kinase receptor Ret (Homo sapiens, UniProt P07949). The assay can be described thus: RET Kinase Assay. The method, then: The experimental steps are as follows:(1) The test compound (the compound of the present disclosure, and compound 164 in WO2018017983A1 as a control) was dissolved in 100% DMSO to a final concentration of 10 mM.(2) 4 μL of the test compound solution prepared in step (1) was dissolved with 46 μL of 100% DMSO, and the solution obtained in this step was numbered as No. 2.(3) No. 2 solution was subjected to subsequent gradient dilution with a dilution factor of 5 times (i.e. 20 μL of 100% DMSO was added to 5 μL of the compound), a total of 9 gradients, numbered 3 to 11.Note: No. 2 was not used for the dilution in step (4).(Unless otherwise specified, the following steps need to be carried out on ice)(4) The buffer provided in the kit (Cisbio, Cat. No. 62TK0PEB) was used to continuously serially dilute the solutions numbered from 3 to 11 with a dilution factor of 20 times (that is, adding 19 μL of buffer to the solutions numbered from 3 to 11). […] After the incubation, the TF-FRET mode of the microplate reader (BMG Labtech, model: FLUOStar Omega) was adopted to measure the fluorescence intensity at an excitation wavelength of 304 nm and emission wavelengths of 615 nm and […] in each well. […]
Proto-oncogene tyrosine-protein kinase receptor Ret, sequence (P07949 whole entry): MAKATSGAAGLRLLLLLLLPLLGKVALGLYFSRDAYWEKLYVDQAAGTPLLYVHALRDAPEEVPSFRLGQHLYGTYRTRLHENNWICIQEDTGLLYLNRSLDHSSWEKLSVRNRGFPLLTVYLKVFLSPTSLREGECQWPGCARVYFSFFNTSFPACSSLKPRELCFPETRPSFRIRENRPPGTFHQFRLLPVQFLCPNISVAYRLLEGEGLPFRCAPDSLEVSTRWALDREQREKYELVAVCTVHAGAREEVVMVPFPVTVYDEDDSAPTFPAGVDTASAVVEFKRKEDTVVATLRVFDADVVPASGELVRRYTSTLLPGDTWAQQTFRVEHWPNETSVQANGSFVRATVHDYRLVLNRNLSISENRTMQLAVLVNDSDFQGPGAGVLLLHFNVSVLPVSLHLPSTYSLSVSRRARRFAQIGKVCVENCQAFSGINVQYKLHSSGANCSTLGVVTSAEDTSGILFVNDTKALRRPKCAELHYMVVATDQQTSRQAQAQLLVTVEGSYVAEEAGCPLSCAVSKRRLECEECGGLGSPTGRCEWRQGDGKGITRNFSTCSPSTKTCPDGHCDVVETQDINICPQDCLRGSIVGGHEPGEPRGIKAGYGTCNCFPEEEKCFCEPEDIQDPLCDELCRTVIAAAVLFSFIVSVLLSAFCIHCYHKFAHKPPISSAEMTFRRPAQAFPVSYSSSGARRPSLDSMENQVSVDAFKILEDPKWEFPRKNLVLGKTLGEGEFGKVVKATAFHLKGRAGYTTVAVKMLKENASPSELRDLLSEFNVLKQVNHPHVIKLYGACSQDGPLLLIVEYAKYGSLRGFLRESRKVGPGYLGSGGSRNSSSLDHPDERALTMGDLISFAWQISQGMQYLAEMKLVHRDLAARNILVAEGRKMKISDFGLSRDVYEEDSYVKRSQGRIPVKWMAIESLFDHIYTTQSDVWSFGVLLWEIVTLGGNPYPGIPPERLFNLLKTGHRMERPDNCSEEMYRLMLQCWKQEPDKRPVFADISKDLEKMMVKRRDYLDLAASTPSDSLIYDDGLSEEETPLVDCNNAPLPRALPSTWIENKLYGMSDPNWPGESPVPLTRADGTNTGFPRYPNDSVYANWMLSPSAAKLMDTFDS

Assay [2] addresses Vascular endothelial growth factor receptor 2 (Homo sapiens, UniProt P35968).

Vascular endothelial growth factor receptor 2, sequence (P35968 whole entry): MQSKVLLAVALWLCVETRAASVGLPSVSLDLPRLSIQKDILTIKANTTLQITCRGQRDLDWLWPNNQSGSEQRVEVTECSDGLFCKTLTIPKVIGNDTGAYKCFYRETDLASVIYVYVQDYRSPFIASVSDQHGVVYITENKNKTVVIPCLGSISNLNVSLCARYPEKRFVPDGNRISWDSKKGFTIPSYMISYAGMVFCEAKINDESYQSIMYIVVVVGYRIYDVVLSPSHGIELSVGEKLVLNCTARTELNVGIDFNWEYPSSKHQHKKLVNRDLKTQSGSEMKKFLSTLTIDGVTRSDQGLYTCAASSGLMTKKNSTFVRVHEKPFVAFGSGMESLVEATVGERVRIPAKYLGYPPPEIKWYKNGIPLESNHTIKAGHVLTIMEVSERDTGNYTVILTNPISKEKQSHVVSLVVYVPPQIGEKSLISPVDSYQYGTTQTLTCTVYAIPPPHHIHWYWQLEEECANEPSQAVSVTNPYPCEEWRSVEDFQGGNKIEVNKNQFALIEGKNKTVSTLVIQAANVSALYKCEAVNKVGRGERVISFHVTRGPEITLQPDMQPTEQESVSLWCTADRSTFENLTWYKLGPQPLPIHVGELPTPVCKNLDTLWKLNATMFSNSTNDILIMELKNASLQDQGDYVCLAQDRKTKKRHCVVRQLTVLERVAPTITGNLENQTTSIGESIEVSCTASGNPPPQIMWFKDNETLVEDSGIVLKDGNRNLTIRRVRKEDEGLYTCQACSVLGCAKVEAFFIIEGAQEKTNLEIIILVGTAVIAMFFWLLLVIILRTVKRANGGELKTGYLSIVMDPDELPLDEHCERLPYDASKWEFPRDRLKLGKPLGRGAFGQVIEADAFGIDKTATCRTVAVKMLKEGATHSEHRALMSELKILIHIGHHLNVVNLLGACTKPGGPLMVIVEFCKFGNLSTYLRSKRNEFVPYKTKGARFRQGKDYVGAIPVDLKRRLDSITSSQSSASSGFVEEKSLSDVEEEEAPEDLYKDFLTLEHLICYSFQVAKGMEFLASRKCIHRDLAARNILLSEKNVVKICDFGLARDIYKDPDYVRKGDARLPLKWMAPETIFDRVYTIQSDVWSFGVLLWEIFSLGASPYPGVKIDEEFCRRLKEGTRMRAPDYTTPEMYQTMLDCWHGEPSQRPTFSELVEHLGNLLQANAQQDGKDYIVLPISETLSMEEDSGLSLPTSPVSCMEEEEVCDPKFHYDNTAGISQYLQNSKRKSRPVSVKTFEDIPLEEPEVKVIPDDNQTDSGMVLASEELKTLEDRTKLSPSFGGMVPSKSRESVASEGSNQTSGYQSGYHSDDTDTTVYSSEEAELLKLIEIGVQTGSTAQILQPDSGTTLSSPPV

For the compound `Cc1cc(Nc2ccnc(N3CC4CCC(C3)N4C(=O)c3ccc(-n4cc(F)cn4)nn3)n2)n[nH]1` [US12234222, Compound I-14], the IC50 (commonly the concentration at which inhibition is half-maximal) in assay [1] was found to be 3.9 nM; in assay [2], 141 nM.

On to `Cc1cc(Nc2cc(C)[nH]n2)nc(N2CC3CCC(C2)N3C(=O)c2ccc(-n3cc(Cl)cn3)nc2)n1` [US12234222, Compound I-8], for which the IC50 was 1.7 nM in assay [1] and 107 nM in assay [2].
